A short description of data set [1]: Drug level in blood of mouse LLC allografted in mouse at 100 mg/kg, ip. The note with it: in vivo, read-out: Drug uptake. It is filed as ADME, organism-based.
The subject of data set [2] is Lewis lung carcinoma cell line. Description: Antimetastatic activity against mouse LLC allografted in mouse assessed as reduction in tumor nodule numbers at 100 mg/kg, ip. It is filed as functional. Also noted: scale not given: the % may be the effect or the level left.
For data set [3], the system named is Lewis lung carcinoma cell line. Put plainly: Antitumor activity against mouse LLC allografted in C57Bl6/N mouse assessed as inhibition olf tumor growth at 200 mg/kg/day, ip. The note with it: read-out: TGI. It is filed as functional.
Another data set addresses Prothrombin (Homo sapiens, UniProt P00734). Description: Inhibition of thrombin (unknown origin).
Data set [4] concerns the target Tissue-type plasminogen activator (Homo sapiens, UniProt P00750). Put plainly: Inhibition of tPA (unknown origin).
Another data set has as its target Plasminogen (Homo sapiens, UniProt P00747). Put plainly: Inhibition of plasmin (unknown origin).
Data set [5] can be described thus: Antitumor activity against rat BN472 cells implanted in Norwegian BN rat model of orthotopical breast cancer assessed as inhibition of tumor growth at 1 mg/kg/day, sc. It is filed as functional. The note with it: read-out: TGI.
In data set [6] the target is Urokinase-type plasminogen activator (Homo sapiens, UniProt P00749). Put plainly: Inhibition of uPA (unknown origin).
The next data set deals with Coagulation factor X (Homo sapiens, UniProt P00742). Description: Inhibition of factor 10a (unknown origin).
Coagulation factor X, sequence (P00742 41-179 limits assumed): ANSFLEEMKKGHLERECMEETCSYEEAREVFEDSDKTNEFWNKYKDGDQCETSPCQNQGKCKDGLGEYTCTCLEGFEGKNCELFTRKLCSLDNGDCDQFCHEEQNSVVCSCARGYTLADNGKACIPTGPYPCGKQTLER
Coagulation factor X, sequence (P00742 235-488 limits assumed): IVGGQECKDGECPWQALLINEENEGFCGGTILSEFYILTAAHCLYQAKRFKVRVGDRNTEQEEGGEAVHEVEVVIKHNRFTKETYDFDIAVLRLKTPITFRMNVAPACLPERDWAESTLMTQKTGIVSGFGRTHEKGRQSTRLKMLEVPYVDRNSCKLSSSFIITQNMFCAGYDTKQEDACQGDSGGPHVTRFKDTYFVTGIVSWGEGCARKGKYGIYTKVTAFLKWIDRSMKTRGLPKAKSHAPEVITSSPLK

Structures are written as SMILES.

Plasminogen, sequence (P00747 97-580 limits assumed): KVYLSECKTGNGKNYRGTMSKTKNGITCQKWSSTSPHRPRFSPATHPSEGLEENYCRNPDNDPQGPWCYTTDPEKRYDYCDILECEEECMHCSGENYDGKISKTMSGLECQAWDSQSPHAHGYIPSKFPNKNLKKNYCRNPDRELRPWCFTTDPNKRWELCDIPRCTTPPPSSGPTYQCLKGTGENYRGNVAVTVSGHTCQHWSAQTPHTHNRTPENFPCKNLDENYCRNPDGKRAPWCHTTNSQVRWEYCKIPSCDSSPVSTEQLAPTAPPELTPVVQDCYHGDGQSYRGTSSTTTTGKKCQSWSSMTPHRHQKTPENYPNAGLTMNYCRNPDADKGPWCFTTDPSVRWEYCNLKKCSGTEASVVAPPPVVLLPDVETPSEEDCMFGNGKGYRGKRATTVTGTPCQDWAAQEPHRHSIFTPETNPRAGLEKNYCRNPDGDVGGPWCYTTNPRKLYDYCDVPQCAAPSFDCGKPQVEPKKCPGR
Plasminogen, sequence (P00747 581-810 limits assumed): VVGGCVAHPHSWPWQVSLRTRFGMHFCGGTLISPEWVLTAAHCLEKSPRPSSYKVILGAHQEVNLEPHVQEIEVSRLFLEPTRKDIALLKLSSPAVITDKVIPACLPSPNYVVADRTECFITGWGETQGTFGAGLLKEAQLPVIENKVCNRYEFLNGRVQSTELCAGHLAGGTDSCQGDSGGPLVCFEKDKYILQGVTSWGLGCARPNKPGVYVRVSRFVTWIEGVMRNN
Tissue-type plasminogen activator, sequence (P00750 whole entry): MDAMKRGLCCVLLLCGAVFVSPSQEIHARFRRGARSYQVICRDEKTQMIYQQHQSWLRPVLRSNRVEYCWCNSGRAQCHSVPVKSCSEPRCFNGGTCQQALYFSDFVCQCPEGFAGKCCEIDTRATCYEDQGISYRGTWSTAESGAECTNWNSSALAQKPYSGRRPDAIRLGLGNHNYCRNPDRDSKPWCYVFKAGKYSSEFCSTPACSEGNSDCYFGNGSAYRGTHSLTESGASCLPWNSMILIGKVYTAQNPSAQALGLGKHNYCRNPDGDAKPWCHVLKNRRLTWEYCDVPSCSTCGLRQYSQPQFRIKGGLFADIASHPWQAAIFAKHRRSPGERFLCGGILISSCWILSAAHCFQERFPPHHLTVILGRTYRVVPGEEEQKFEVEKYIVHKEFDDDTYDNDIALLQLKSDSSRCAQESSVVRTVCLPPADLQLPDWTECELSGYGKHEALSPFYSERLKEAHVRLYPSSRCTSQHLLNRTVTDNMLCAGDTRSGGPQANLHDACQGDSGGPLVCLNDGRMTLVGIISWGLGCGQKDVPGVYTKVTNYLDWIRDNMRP

Regarding `N=C(N)c1ccc(CNC(=O)[C@H](CO)NC(=O)[C@@H](CO)NS(=O)(=O)Cc2ccccc2)cc1`, the concentration in [1] stood at 1010 µM. In addition, the Activity in [2] came out at 41.5%. Moreover, the inhibition in vivo at 200 mg/kg/day in [3] was determined as 43%.

In the case of `CCOC(=O)N1CCN(C(=O)[C@H](Cc2cccc(C(=N)N)c2)NS(=O)(=O)c2c(C(C)C)cc(C(C)C)cc2C(C)C)CC1`, the Ki (usually a measure of affinity in units of concentration, obtained from inhibition or displacement) turned out to be 500 nM on Prothrombin; 2510 nM in [4]; 1460 nM at Plasminogen; 650 nM in data set [6]; 980 nM on Coagulation factor X. In addition, in data set [5], the inhibition in vivo at 1 mg/kg/day is 53%.
